Reference: patent US20230296616A1, “ARGININE FLUORESCENT PROBE, PREPARATION METHOD THEREFOR AND APPLICATION THEREOF” (East China University of Science and Technology, priority 2020, published 2023)

Columns and labels:
[1] = specific detection of 20 amino acids by arginine fluorescent sensors; assay type: biochemical; conditions: FIG. 8
[2] = molecular target: T1, STM4351-107/111-cpYFP variant S30N, SEQ ID NO: 40 (arginine-binding protein STM4351 derived from Salmonella Typhimurium) (Salmonella enterica, UniProt Q8ZKA9, DELINS108-110[…]/S30N); assay: fluorescence detection of mutated cpYFP optical sensor; assay type: biochemical; conditions: S30N-107/111; detected according to Example 2
T1 construct: His-tag, pET28a, E. coli JM109(DE3), purified
Experimental: (§1) • 1. The pET28a based arginine sensor plasmid was transformed into JM109 (DE3), incubated inverted overnight, and the clones were picked from the plates into 250 ml Erlenmeyer flasks, placed in a shaker at 37° C. and incubated at 220 rpm to OD=0.4-0.8, then 1/1000 (V/V) of IPTG (1 M) was added to induce expression at 18° C. for 24-36 h. • 2. Upon completion of inducible expression, cells were harvested by centrifugation at 4000 rpm for 30 min, resuspended in 50 mM phosphate buffer and disrupted ultrasonically until the broth were clear, centrifuged at 9600 rpm at 4° C. for 20 min. • 3. […] 100 μl 5 μM of protein solution was taken, incubated at 37° C. for 5 min, arginine was added to mix to a final concentration of 100 mM, respectively, the optical absorption of the protein at 340 nm was determined using a multifunctional fluorescence microplate reader. • 6. 100 μl 1 μM of fluorescent sensor solution was taken, incubated at 37° C. for 5 min, arginine was added for titration, and the fluorescence intensity of 528 nm emission after 485 nm fluorescence excitation of the protein was measured. The fluorescence excitation and emission determination of the samples were done using a multifunctional fluorescence microplate reader. • 7. […] Determination of the absorption and fluorescence spectra of the samples was done by spectrophotometer and spectrofluorometer. […]

[3] = molecular target: T2, STM4351-107/111-cpYFP variant D177N, SEQ ID NO: 41 (arginine-binding protein STM4351 derived from Salmonella Typhimurium) (Salmonella enterica, UniProt Q8ZKA9, D177N/DELINS108-110[…]); assay: as above; assay type: biochemical; conditions: D177N-107/111; detected according to Example 2
T2 construct: His-tag, pET28a, E. coli JM109(DE3), purified
Experimental: as §1

[4] = molecular target: T3, STM4351-104/110-cpYFP, SEQ ID NO: 7 (arginine-binding protein STM4351 derived from Salmonella Typhimurium, SEQ ID NO: 1) (Salmonella enterica, UniProt Q8ZKA9, DELINS105-109[…]); assay: fluorescence spectra of sensor with and without arginine; assay type: biochemical; conditions: 500 mM vs 0 mM arginine
T3 construct: His-tag, pET28a, E. coli JM109(DE3), purified
Experimental: as §1

[5] = molecular target: T4, STM4351-cpYFP fusion protein, insertion site 200/205, SEQ ID NO: 29 (arginine-binding protein STM4351 derived from Salmonella Typhimurium, SEQ ID NO: 1) (Salmonella enterica, UniProt Q8ZKA9, DELINS201-204[…]); assay: concentration gradient arginine detection (fluorescence ratio titration)
T4 construct: His-tag, pET28a, E. coli JM109(DE3), purified
Experimental: (§2) • 1. The pET28a based arginine sensor plasmid was transformed into JM109 (DE3), incubated inverted overnight, and the clones were picked from the plates into 250 ml Erlenmeyer flasks, placed in a shaker at 37° C. and incubated at 220 rpm to OD=0.4-0.8, then 1/1000 (V/V) of IPTG (1 M) was added to induce expression at 18° C. for 24-36 h. • 2. Upon completion of inducible expression, cells were harvested by centrifugation at 4000 rpm for 30 min, resuspended in 50 mM phosphate buffer and disrupted ultrasonically until the broth were clear, centrifuged at 9600 rpm at 4° C. for 20 min. • 3. The centrifuged supernatant was used to obtain protein by purification through a self packed nickel column affinity chromatography column, and the protein obtained after nickel column affinity chromatography was further used to obtain protein dissolved in 20 mM MOPS buffer (pH 7.4) or phosphate buffer PBS. • 4. After purified arginine-binding protein muteins were subjected to SDS-PAGE, sensors were diluted to a protein solution having a final concentration of 5-10 μM using assay buffer (100 mm HEPES, 100 mM NaCl, pH 7.3) or phosphate buffer PBS. Arginine was formulated as a stock solution at a final concentration of 1 M with assay buffer (20 mM MOPS, pH 7.4) or phosphate buffer PBS. • 5. 100 μl 5 μM of protein solution was taken, incubated at 37° C. for 5 min, arginine was added to mix to a final concentration of 100 mM, respectively, the optical absorption of the protein at 340 nm was determined using a multifunctional fluorescence microplate reader. • 6. 100 μl 1 μM of fluorescent sensor solution was taken, incubated at 37° C. for 5 min, arginine was added for titration, and the fluorescence intensity of 528 nm emission after 485 nm fluorescence excitation of the protein was measured. The fluorescence excitation and emission determination of the samples were done using a multifunctional fluorescence microplate reader. • 7. 100 μl 1 μM of fluorescent sensor solution was taken, incubated at 37° C. for 5 min, and arginine was added to determine the absorption and fluorescence spectra of the sensor proteins. Determination of the absorption and fluorescence spectra of the samples was done by spectrophotometer and spectrofluorometer.

[6] = molecular target: T5, STM4351-cpYFP fusion protein, insertion site 199/200, SEQ ID NO: 22 (arginine-binding protein STM4351 derived from Salmonella Typhimurium, SEQ ID NO: 1) (Salmonella enterica, UniProt Q8ZKA9, INS199[…]); assay: as above
T5 construct: His-tag, pET28a, E. coli JM109(DE3), purified
Experimental: as §2

[7] = molecular target: T6, STM4351-cpYFP fusion protein, insertion site 200/203, SEQ ID NO: 27 (arginine-binding protein STM4351 derived from Salmonella Typhimurium, SEQ ID NO: 1) (Salmonella enterica, UniProt Q8ZKA9, DELINS201-202[…]); assay: as above
T6 construct: His-tag, pET28a, E. coli JM109(DE3), purified
Experimental: as §2

[8] = molecular target: T7, STM4351-cpYFP fusion protein, insertion site 105/110, SEQ ID NO: 11 (arginine-binding protein STM4351 derived from Salmonella Typhimurium, SEQ ID NO: 1) (Salmonella enterica, UniProt Q8ZKA9, DELINS107-109[…]); assay: as above
T7 construct: His-tag, pET28a, E. coli JM109(DE3), purified
Experimental: as §2

[9] = molecular target: T8, STM4351-199/200-cpYFP, SEQ ID NO: 22, expressed in the cytosol of HeLa cells (arginine-binding protein STM4351 derived from Salmonella Typhimurium, SEQ ID NO: 1 (Salmonella enterica, UniProt Q8ZKA9, INS199[…]); assay: dynamic monitoring of arginine transmembrane transport in HeLa cells; assay type: cell-based; conditions: after 2 hours of starvation, 10 mM arginine, 20 minutes
T8 construct: expressed in cytosol of HeLa cells from pAAV plasmid
Experimental: • 1. PAAV-based arginine optical sensor plasmids were transfected into HeLa by using the transfection reagent Lipofectamine2000 (Invitrogen) and incubated in a cell incubator at 37° C. with 5% CO2. After the exogenous gene was fully expressed for 24˜36 hours, the fluorescence detection was performed. • 2. After induction of expression, adherent HeLa cells were washed three times with PBS and placed in HMS solution for fluorescence microscopy and microplate reader assays, respectively.
36 hours after transfection of HeLa cells with plasmids encoding cytosolically expressed optical sensor STM4351-199/200-cpYFP, cells were rinsed using PBS, placed in HMS solution, and then changes in the ratio of the fluorescence intensity at 528 nm emission excited at 420 nm to that at 528 nm emission excited at 485 nm were detected over 40 min. After 2 hours of starvation, the ratio 485/420 increased gradually after adding 10 mM arginine for 20 minutes, and the highest ratio was 2.2 times. Same as STM4351-105/110-cpYFP sensor and STM4351-200/203-cpYFP sensor.

[10] = molecular target: T4, STM4351-cpYFP fusion protein, insertion site 200/205, SEQ ID NO: 29 (arginine-binding protein STM4351 derived from Salmonella Typhimurium, SEQ ID NO: 1); assay: screening of purified fusion protein for arginine response; assay type: biochemical; conditions: cpYFP at 200/205; 100 mM arginine vs without arginine
Experimental: as §2

[11] = molecular target: T5, STM4351-cpYFP fusion protein, insertion site 199/200, SEQ ID NO: 22 (arginine-binding protein STM4351 derived from Salmonella Typhimurium, SEQ ID NO: 1); assay: as above; assay type: biochemical; conditions: cpYFP at 199/200; 100 mM arginine vs without arginine
Experimental: as §2

[12] = molecular target: T6, STM4351-cpYFP fusion protein, insertion site 200/203, SEQ ID NO: 27 (arginine-binding protein STM4351 derived from Salmonella Typhimurium, SEQ ID NO: 1); assay: as above; assay type: biochemical; conditions: cpYFP at 200/203; 100 mM arginine vs without arginine
Experimental: as §2

[13] = molecular target: T9, STM4351-cpYFP fusion protein, insertion site 104/110, SEQ ID NO: 7 (arginine-binding protein STM4351 derived from Salmonella Typhimurium, SEQ ID NO: 1) (Salmonella enterica, UniProt Q8ZKA9, DELINS105-109[…]); assay: as above; assay type: biochemical; conditions: cpYFP at 104/110; 100 mM arginine vs without arginine
T9 construct: His-tag, pET28a, E. coli JM109(DE3), purified
Experimental: as §2

[14] = molecular target: T10, STM4351-cpYFP fusion protein, insertion site 107/111, SEQ ID NO: 15 (arginine-binding protein STM4351 derived from Salmonella Typhimurium, SEQ ID NO: 1) (Salmonella enterica, UniProt Q8ZKA9, DELINS108-110[…]); assay: as above; assay type: biochemical; conditions: cpYFP at 107/111; 100 mM arginine vs without arginine
T10 construct: His-tag, pET28a, E. coli JM109(DE3), purified
Experimental: as §2

[15] = molecular target: T7, STM4351-cpYFP fusion protein, insertion site 105/110, SEQ ID NO: 11 (arginine-binding protein STM4351 derived from Salmonella Typhimurium, SEQ ID NO: 1); assay: as above; assay type: biochemical; conditions: cpYFP at 105/110; 100 mM arginine vs without arginine
Experimental: as §2

## 199/201: arginine sensor: cpYFP inserted at site 199/201 of STM4351
[1]
  specificity for arginine: good specificity for arginine

## N=C(N)NCCC[C@H](N)C(=O)O [arginine]
[2]
  response to arginine relative to control: more than 3 times
[3]
  response to arginine relative to control: more than 3 times
[4]; excited at 420 nm
  decrease of fluorescence intensity excited at 420 nm: 1.4 times
[4]; excited at 485 nm
  increase in fluorescence intensity under excitation at 485 nm: 2.0 fold
[5]
  change amplitude: 3.0 times
[6]
  change amplitude: 11.0 times
[7]
  change amplitude: 8.6 times
[8]
  change amplitude: 4.3 times
[9]
  highest ratio 485/420: 2.2 times
[10]
  response to arginine relative to control: more than 2 fold
[11]
  response to arginine relative to control: more than 2 fold
[12]
  response to arginine relative to control: more than 2 fold
[13]
  response to arginine relative to control: more than 2 fold
[14]
  response to arginine relative to control: more than 2 fold
[15]
  response to arginine relative to control: more than 2 fold
